In the supplement of paper PMC13380429:

Columns and labels:
Conditions in all cases: 72 h
Caco-2 [1] = experiment: cell viability relative to DMSO; higher = less toxic
Calu-3 [2] = experiment: as above
HepG2 [3] = experiment: as above
U2OS [4] = experiment: as above
Vero E6 [5] = experiment: as above
Calu-3 [6] = experiment: relative viability EC50 (midpoint between 100% and the lowest measured viability); higher = less toxic
HepG2 [7] = experiment: as above
U2OS [8] = experiment: as above
Vero E6 [9] = experiment: as above
Caco-2 [10] = experiment: drug sensitivity score (DSS) for viability; higher = more toxic; extreme values may be limits of the assay
Calu-3 [11] = experiment: as above
HepG2 [12] = experiment: as above
U2OS [13] = experiment: as above
Vero E6 [14] = experiment: as above
Caco-2 [15] = experiment: relative viability EC50 (midpoint between 100% and the lowest measured viability); higher = less toxic

SMILES	cell viability (Caco-2 [1]; 1 nM) [%]	cell viability (Caco-2 [1]; 10 nM) [%]	cell viability (Caco-2 [1]; 100 nM) [%]	cell viability (Caco-2 [1]; 1000 nM) [%]	cell viability (Caco-2 [1]; 10000 nM) [%]	cell viability (Calu-3 [2]; 1 nM) [%]	cell viability (Calu-3 [2]; 10 nM) [%]	cell viability (Calu-3 [2]; 100 nM) [%]	cell viability (Calu-3 [2]; 1000 nM) [%]	cell viability (Calu-3 [2]; 10000 nM) [%]	cell viability (HepG2 [3]; 1 nM) [%]	cell viability (HepG2 [3]; 10 nM) [%]	cell viability (HepG2 [3]; 100 nM) [%]	cell viability (HepG2 [3]; 1000 nM) [%]	cell viability (HepG2 [3]; 10000 nM) [%]	cell viability (U2OS [4]; 1 nM) [%]	cell viability (U2OS [4]; 10 nM) [%]	cell viability (U2OS [4]; 100 nM) [%]	cell viability (U2OS [4]; 1000 nM) [%]	cell viability (U2OS [4]; 10000 nM) [%]	cell viability (Vero E6 [5]; 1 nM) [%]	cell viability (Vero E6 [5]; 10 nM) [%]	cell viability (Vero E6 [5]; 100 nM) [%]	cell viability (Vero E6 [5]; 1000 nM) [%]	cell viability (Vero E6 [5]; 10000 nM) [%]	relative viability EC50 (Calu-3 [6]) [µM]	relative viability EC50 (HepG2 [7]) [µM]	relative viability EC50 (U2OS [8]) [µM]	relative viability EC50 (Vero E6 [9]) [µM]	drug sensitivity score (Caco-2 [10])	drug sensitivity score (Calu-3 [11])	drug sensitivity score (HepG2 [12])	drug sensitivity score (U2OS [13])	drug sensitivity score (Vero E6 [14])	relative viability EC50 (Caco-2 [15]) [µM]
CCNCCS(=O)(=O)NC[C@@]1(c2ccccc2)SC(NC(=O)C(C)(C)C)=NN1C(=O)C(C)(C)C [litronesib]	98.1	91	62.9	67.9	62.2	95.1	91.9	87	84.3	81.2	89.4	72.9	35.9	34.7	33.6	104	96	58	49.7	44.8	97	107	82.9	38.8	41.9	> 10	0.0119	0.0488	0.146	12.7	2.8	23.3	15.5	13.9	–
CC1CCN(CCCC(=O)c2ccc(F)cc2)CC1 [melperone]	99.3	103	98.3	93.5	89.9	–	–	–	–	–	104	96.5	102	99.7	101	99.4	98.6	95.5	100	93.7	100	98	98.9	93	100	–	> 10	> 10	> 10	0	–	0	0	0	> 10
CN1CCN(C(c2ccccc2)c2ccc(Cl)cc2)CC1 (centres undefined) [chlorcyclizine]	107	104	79.4	105	71.7	102	103	96.4	98.3	88.1	97.6	90.4	95.8	91.7	87.9	93.8	103	99	106	88.8	105	97.3	103	101	92.6	> 10	> 10	> 10	> 10	0.9	0.1	0	0	0	–
CC(C)=CCC/C(C)=C/CC/C(C)=C/C=C/C(C)=C/C(=O)O [peretinoin]	104	98.9	101	97.9	102	107	104	105	114	97.6	101	94.3	90.9	103	104	–	–	–	–	–	101	96.1	106	93.3	104	> 10	> 10	–	> 10	0	0	0	–	0	> 10
